We go through 16 compounds from patent US12187701B2, “Taire family kinase inhibitors and uses thereof” (Dana-Farber Cancer Institute, Inc., priority 2018, dated 2025).

A value given as a limit tells only on which side of the number the result lay.

In one test the test system is HCT116 cells. The test is described as follows: Antiproliferation assay, Cell Titer Glo, 72 hours. It is filed as cell-based. The settings on record: Homo sapiens, HCT-116, 72 h. The gist of the method: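 Luminescent CellTiter-Glo read-out after 72 h compound exposure (four-fold dilutions, 37 °C, 5% CO2) of HCT116 cells plated at 750 cells/well in McCoy's 5A + 10% FBS. Biological quadruplicates; IC50 from non-linear curve fitting.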

A further test has as its target Cdk14/CycY (Homo sapiens (Human), UniProt O94921). As to the kind of experiment: Lanthascreen Eu kinase binding assay for Cdk14/CycY with 30 minute pre-incubation. Particulars: 30 minute pre-incubation of kinase with compound; read-out: IC50 CDK14 binding by Lanthascreen. How it is done: Lanthascreen Eu kinase binding assays were conducted for Cdk14/CycY largely as performed in the commercial assay service by Life Technologies, but included a 30 minute pre-incubation step of the kinase with candidate compounds to facilitate covalent bond formation.

For test [1], the target named is T1, Cdk14 (Homo sapiens (Human), UniProt O94921). As to the kind of experiment: Cdk14 33P kinase assay (Reaction Biology Corp.). The class given is biochemical.
Target sequence in this assay (O94921 whole entry, looked up): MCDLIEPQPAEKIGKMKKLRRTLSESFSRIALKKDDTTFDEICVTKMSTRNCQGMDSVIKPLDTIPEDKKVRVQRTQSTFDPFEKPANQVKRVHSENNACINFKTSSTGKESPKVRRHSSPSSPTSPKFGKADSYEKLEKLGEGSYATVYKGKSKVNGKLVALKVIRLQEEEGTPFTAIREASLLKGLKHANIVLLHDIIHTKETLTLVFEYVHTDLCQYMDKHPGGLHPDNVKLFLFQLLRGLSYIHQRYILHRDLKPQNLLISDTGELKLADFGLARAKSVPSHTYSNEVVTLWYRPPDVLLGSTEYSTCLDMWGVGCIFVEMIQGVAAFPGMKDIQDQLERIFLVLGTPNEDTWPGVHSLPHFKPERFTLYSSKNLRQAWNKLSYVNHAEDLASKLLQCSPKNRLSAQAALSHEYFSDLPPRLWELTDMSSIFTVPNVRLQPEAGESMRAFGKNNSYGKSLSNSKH
Target sequence in this assay (Q8ND76 whole entry partner, looked up): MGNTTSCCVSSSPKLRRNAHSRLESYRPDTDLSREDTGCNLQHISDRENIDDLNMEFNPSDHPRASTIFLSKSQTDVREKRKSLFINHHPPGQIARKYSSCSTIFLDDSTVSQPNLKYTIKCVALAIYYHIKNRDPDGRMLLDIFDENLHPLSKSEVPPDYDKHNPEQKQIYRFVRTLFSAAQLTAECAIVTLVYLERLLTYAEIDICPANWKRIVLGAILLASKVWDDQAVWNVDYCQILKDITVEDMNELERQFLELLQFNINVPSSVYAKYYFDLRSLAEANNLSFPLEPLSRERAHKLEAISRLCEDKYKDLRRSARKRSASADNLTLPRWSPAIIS
Another test deals with CDK2/CycA (Homo sapiens (Human), UniProt P24941). The test is described as follows: Z'LYTE kinase assay for CDK2/CycA at Km ATP. The class given is biochemical. Particulars: read-out: IC50 CDK2 Z′LYTE kinase assay.
The target of test [2] is T1, Cdk14. The test is described as follows: Cellular pull down with biotinylated probe, CDK14.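 Also: biotinylated probe used at 1 µM in lysates overnight at 4 °C.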 It is filed as cell-based. Particulars: HEK293 cells overexpressing Cdk14-flag, 4 hours treatment; some cells print Y or N instead of a concentration. How it is done:
HEK293 cells overexpressing a Cdk14-flag fusion protein were treated with candidate compounds for 4 hours. Cells were washed with PBS, harvested and lysed in Pierce IP buffer with protease and phosphatase inhibitors (Roche). […] To enhance pulldown, lysates were incubated at room temperature for an additional 2 hours. […] Beads were then washed 3 times with Pierce IP buffer, then boiled at 95° C. for 5 minutes in 2× LDS+10% β-mercaptoethanol. Proteins of interest engaged by the biotinylated compound were then assessed using western blotting.
Target sequence in this assay (O94921 whole entry): as the sequence (O94921 whole entry, looked up) above

The target in another test is CDK16/CycY (Homo sapiens (Human), UniProt Q00536). The test is described as follows: Lanthascreen Eu kinase binding assay for CDK16/CycY. Particulars: read-out: IC50 CDK16 Lanthascreen binding. Here is the method:
Lanthascreen Eu kinase binding assays were conducted for CDK16/CycY at Life Technologies.
For orientation: Time-resolved FRET reads energy transfer from a long-lived donor to a nearby acceptor.

Chain of CDK16/CycY (Q00536 whole entry): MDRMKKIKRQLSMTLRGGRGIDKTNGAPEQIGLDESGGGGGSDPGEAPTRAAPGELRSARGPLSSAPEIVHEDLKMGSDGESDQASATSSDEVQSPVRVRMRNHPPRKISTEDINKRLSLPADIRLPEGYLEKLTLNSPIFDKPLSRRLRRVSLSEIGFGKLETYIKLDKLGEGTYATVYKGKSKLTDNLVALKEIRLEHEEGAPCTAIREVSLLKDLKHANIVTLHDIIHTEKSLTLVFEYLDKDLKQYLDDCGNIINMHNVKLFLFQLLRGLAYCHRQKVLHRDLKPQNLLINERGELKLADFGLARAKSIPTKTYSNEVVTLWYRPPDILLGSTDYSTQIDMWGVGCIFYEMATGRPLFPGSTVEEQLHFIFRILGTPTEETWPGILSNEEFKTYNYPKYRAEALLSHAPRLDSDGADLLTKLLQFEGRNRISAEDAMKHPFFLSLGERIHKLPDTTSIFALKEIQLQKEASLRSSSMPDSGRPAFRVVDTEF
Chain of CDK16/CycY (Q8ND76 whole entry partner): as the sequence (Q8ND76 whole entry partner, looked up) above
Chain of Cdk14/CycY (O94921 whole entry): as the sequence (O94921 whole entry, looked up) above
Chain of Cdk14/CycY (Q8ND76 whole entry partner): as the sequence (Q8ND76 whole entry partner, looked up) above

As usually defined, the IC50 is the point on the concentration scale where inhibition reaches its midpoint. In the case of `C=CC(=O)Nc1cccc(S(=O)(=O)N2CCC(NC(=O)c3n[nH]cc3NC(=O)c3c(F)cccc3F)CC2)c1` [FMF-04-096-1, N-(1-((3-acrylamidophenyl)sulfonyl)piperidin-4-yl)-4-(2,6-difluorobenzamido)-1H-pyrazole-3-carboxamide], the figures for the half-maximal inhibitory concentration (IC50) with HCT116 cells, on Cdk14/CycY and at Cdk14 [1] were 114 nM, above 1000 nM and 284 nM, respectively.

Consider `CN(C)C/C=C/C(=O)Nc1cccc(S(=O)(=O)N2CCC(NC(=O)c3n[nH]cc3NC(=O)c3c(F)cccc3F)CC2)c1` [FMF-04-096-2, (E)-4-(2,6-difluorobenzamido)-N-(1-((3-(4-(dimethylamino)but-2-enamido)phenyl)sulfonyl)piperidin-4-yl)-1H-pyrazole-3-carboxamide], for which the 50% inhibitory concentration (IC50) in the test with HCT116 cells was 157 nM; on Cdk14/CycY, 3.4 nM; against Cdk14 [1], 268 nM; at CDK2/CycA, 2.6 nM; on CDK16/CycY it was 2.6 nM. Moreover, the “Cellular Potency by Pulldown” value at Cdk14 [2] is on record as 250 nM.

Turning to `C=CC(=O)Nc1cccc(CNC(=O)c2n[nH]cc2NC(=O)c2c(Cl)cccc2Cl)c1` [FMF-05-067-1, N-(3-acrylamidobenzyl)-4-(2,6-dichlorobenzamido)-1H-pyrazole-3-carboxamide], the IC50 is 8500 nM in the test on HCT116 cells and above 1000 nM against Cdk14 [1].

For the compound `C=CC(=O)Nc1cccc(C(=O)N2CCC(NC(=O)c3n[nH]cc3NC(=O)c3c(Cl)cccc3Cl)CC2)c1` [FMF-03-196-1, N-(1-(3-acrylamidobenzoyl)piperidin-4-yl)-4-(2,6-dichlorobenzamido)-1H-pyrazole-3-carboxamide], the 50% inhibitory concentration (IC50) came out at 32 nM in the test on HCT116 cells; 45 nM on Cdk14/CycY; 36.5 nM against Cdk14 [1]; 3.4 nM on CDK2/CycA; 11.4 nM at CDK16/CycY. In addition, the “Cellular Potency by Pulldown” value on Cdk14 [2] was found to be 1000 nM.

Consider `C=CC(=O)Nc1cccc(CN2CCC(NC(=O)c3n[nH]cc3NC(=O)c3c(F)cccc3F)CC2)c1` [FMF-04-160-1, N-(1-(3-acrylamidobenzyl)piperidin-4-yl)-4-(2,6-difluorobenzamido)-1H-pyrazole-3-carboxamide], for which the IC50 with HCT116 cells came to 7 nM; at Cdk14/CycY, 64 nM; against Cdk14 [1], 1470 nM; at CDK2/CycA, 165 nM; on CDK16/CycY, 120 nM. Further, the “Cellular Potency by Pulldown” value on Cdk14 [2] stood at 500 nM.

`CN(C)C/C=C/C(=O)Nc1cccc(C(=O)Nc2ccc(NC(=O)c3n[nH]cc3NC(=O)c3c(Cl)cccc3Cl)cc2)c1` [FMF-03-206-1, (E)-4-(2,6-dichlorobenzamido)-N-(4-(3-(4-(dimethylamino)but-2-enamido)benzamido)phenyl)-1H-pyrazole-3-carboxamide]: the IC50 in the test with HCT116 cells came to 37 nM; on Cdk14/CycY it was 17 nM; against Cdk14 [1], 342 nM; on CDK2/CycA, 22.4 nM; at CDK16/CycY it was 56.8 nM. Further, the “Cellular Potency by Pulldown” value on Cdk14 [2] was determined as 1000 nM.

Turning to `CN(C)C/C=C/C(=O)Nc1ccc(S(=O)(=O)N2CCC(NC(=O)c3n[nH]cc3NC(=O)c3c(Cl)cccc3Cl)CC2)cc1` [FMF-03-197-2, (E)-4-(2,6-dichlorobenzamido)-N-(1-((4-(4-(dimethylamino)but-2-enamido)phenyl)sulfonyl)piperidin-4-yl)-1H-pyrazole-3-carboxamide], the IC50 with HCT116 cells turned out to be 23 nM; at Cdk14/CycY, 2.6 nM; at Cdk14 [1], 42.8 nM; on CDK2/CycA, 2.8 nM; on CDK16/CycY, 1.2 nM.

Take `CN(C)C/C=C/C(=O)Nc1ccc(C(=O)Nc2ccc(NC(=O)c3n[nH]cc3NC(=O)c3c(Cl)cccc3Cl)cc2)cc1` [FMF-04-012-2, (E)-4-(2,6-dichlorobenzamido)-N-(4-(4-(4-(dimethylamino)but-2-enamido)benzamido)phenyl)-1H-pyrazole-3-carboxamide]: the 50% inhibitory concentration (IC50) in the test with HCT116 cells worked out at 14 nM; at Cdk14/CycY it was 68 nM; at Cdk14 [1], 560 nM; on CDK2/CycA it was 52.8 nM; at CDK16/CycY it was 111 nM.

Turning to `CN(C)C/C=C/C(=O)Nc1cccc(S(=O)(=O)N2CCC(NC(=O)c3n[nH]cc3NC(=O)c3c(F)cc(F)cc3F)CC2)c1` [FMF-04-095-2, (E)-N-(1-((3-(4-(dimethylamino)but-2-enamido)phenyl)sulfonyl)piperidin-4-yl)-4-(2,4,6-trifluorobenzamido)-1H-pyrazole-3-carboxamide], the IC50 with HCT116 cells was determined as 90 nM; on Cdk14/CycY, 10.2 nM; at Cdk14 [1] it was 380 nM; on CDK2/CycA, 3.7 nM; at CDK16/CycY, 5.2 nM. Further, the “Cellular Potency by Pulldown” value at Cdk14 [2] was determined as 500 nM.

On to `COc1cccc(F)c1C(=O)Nc1c[nH]nc1C(=O)NC1CCN(S(=O)(=O)c2cccc(NC(=O)/C=C/CN(C)C)c2)CC1` [FMF-04-097-2, (E)-N-(1-((3-(4-(dimethylamino)but-2-enamido)phenyl)sulfonyl)piperidin-4-yl)-4-(2-fluoro-6-methoxybenzamido)-1H-pyrazole-3-carboxamide], for which the IC50 was 174 nM with HCT116 cells; above 1000 nM on Cdk14/CycY; 238 nM on Cdk14 [1]; 3.7 nM on CDK2/CycA; 2.8 nM at CDK16/CycY. Besides, the “Cellular Potency by Pulldown” value on Cdk14 [2] was 250 nM.

With `C=CC(=O)Nc1cccc(S(=O)(=O)N2CCC(NC(=O)c3n[nH]cc3NC(=O)c3c(Cl)cc(Cl)cc3Cl)CC2)c1` [FMF-04-159-1, N-(1-((3-acrylamidophenyl)sulfonyl)piperidin-4-yl)-4-(2,4,6-trichlorobenzamido)-1H-pyrazole-3-carboxamide], the IC50 in the test with HCT116 cells is 25 nM; on Cdk14/CycY, 49 nM; on Cdk14 [1], 1050 nM; on CDK2/CycA, 20.6 nM; on CDK16/CycY, 46.6 nM. Moreover, at Cdk14 [2], the “Cellular Potency by Pulldown” value is on record as 500 nM.

Take `COc1ccc(Cl)c(C(=O)Nc2c[nH]nc2C(=O)NC2CCN(S(=O)(=O)c3cccc(NC(=O)/C=C/CN(C)C)c3)CC2)c1Cl` [FMF-04-184-2, (E)-4-(2,6-dichloro-3-methoxybenzamido)-N-(1-((3-(4-(dimethylamino)but-2-enamido)phenyl)sulfonyl)piperidin-4-yl)-1H-pyrazole-3-carboxamide]: the 50% inhibitory concentration (IC50) is 23 nM in the test on HCT116 cells, 6.4 nM at Cdk14/CycY, 3.5 nM at CDK2/CycA and 1.8 nM at CDK16/CycY. On Cdk14 [2], the “Cellular Potency by Pulldown” value is listed as 100 nM.

Turning to `C=CC(=O)Nc1cccc(S(=O)(=O)N2CCC(NC(=O)c3n[nH]cc3NC(=O)c3c(F)cc(F)cc3F)CC2)c1` [FMF-04-095-1, N-(1-((3-acrylamidophenyl)sulfonyl)piperidin-4-yl)-4-(2,4,6-trifluorobenzamido)-1H-pyrazole-3-carboxamide], the IC50 with HCT116 cells was 7 nM; at Cdk14/CycY, 122 nM; against Cdk14 [1], above 1000 nM; at CDK2/CycA, 7.5 nM.

For `C=CC(=O)Nc1cccc(CN2CCC(NC(=O)c3n[nH]cc3NC(=O)c3c(Cl)cccc3OC)CC2)c1` [FMF-04-161-1, N-(1-(3-acrylamidobenzyl)piperidin-4-yl)-4-(2-chloro-6-methoxybenzamido)-1H-pyrazole-3-carboxamide], the IC50 in the test with HCT116 cells came to 9 nM; on Cdk14/CycY, 11 nM; against Cdk14 [1] it was 557 nM; at CDK2/CycA, 50.2 nM; at CDK16/CycY, 12.8 nM. The “Cellular Potency by Pulldown” value at Cdk14 [2] is listed as 100 nM.

As to `C=CC(=O)Nc1cccc(S(=O)(=O)N2CCC(NC(=O)c3n[nH]cc3NC(=O)c3c(F)cccc3OC)CC2)c1` [FMF-04-097-1, N-(1-((3-acrylamidophenyl)sulfonyl)piperidin-4-yl)-4-(2-fluoro-6-methoxybenzamido)-1H-pyrazole-3-carboxamide], the IC50 was 9 nM in the test with HCT116 cells, 1.6 nM at Cdk14/CycY and 88 nM against Cdk14 [1].

As to `CN(C)C/C=C/C(=O)Nc1ccc(CN2CCC(NC(=O)c3n[nH]cc3NC(=O)c3c(Cl)cccc3Cl)CC2)cc1` [FMF-03-199-2, (E)-4-(2,6-dichlorobenzamido)-N-(1-(4-(4-(dimethylamino)but-2-enamido)benzyl)piperidin-4-yl)-1H-pyrazole-3-carboxamide], the IC50 worked out at 2.6 nM in the test on HCT116 cells; 14 nM at Cdk14/CycY; 786 nM at Cdk14 [1]; 24 nM on CDK2/CycA; 18.2 nM at CDK16/CycY.
